{"source": "patent US20160311812A1", "about": "“ADENOSINE A1 AGONISTS AS MEDICAMENTS FOR KIDNEY DISORDERS” (BAYER PHARMA AKTIENGESELLSCHAFT, priority 2013, published 2016)", "key": {"[1]": {"test_system": "5/6 nephrectomy rat model", "assay": "Left-ventricular diastolic dysfunction under isoprenaline infusion in 5/6 nephrectomized rats", "assay_type": "in vivo", "conditions": "Group 3: SNX + 10 mg/kg body weight/day in drinking water, 4 weeks", "description": "(§1) B-3. Effects of Partial A1 Agonists on Renal and Cardiac Function in 5/6 Nephrectomized Rats (Example 1 for Chronic Kidney Disorder)\n(§2) 5/6 nephrectomy in the rat, in which one kidney and the renal cortex of the second kidney are surgically removed (=5/6 of functional kidney tissue) is an established animal model for interstitial renal fibrosis and chronic renal insufficiency [C. Fleck et al., “Suitability of 5/6 nephrectomy (5/6NX) for the induction of interstitial renal fibrosis in rats Influence of sex, strain, and surgical procedure”, Exp. Tox. Pathology 2006, 57, 195-205]. The model is characterized by progressive proteinuria, disturbed tubular electrolyte transport, a reduced glomerular filtration rate, an increase in urinary output, interstitial fibrosis with reactively occurring lymphocyte infiltrates, glomerulosclerosis and tubular atrophy. The level of proteinuria is a specific index of the renal function prognosis: the higher the proteinuria, the greater is the functional and structural kidney injury and therefore progression of chronic to terminal renal insufficiency (uraemia). During monitoring of therapy, e.g. with the ACE inhibitor enalapril, the course of proteinuria provides information on the functional and structural response to the therapy and thus on the renal function prognosis. As a result of the renal insufficiency and accumulation of umemic toxins, in the animals there is secondary development of a umemic cardiomyopathy, depending on the severity associated with hypertension, increased heart rate, reduced parasympathetic tone, myocardial, left-ventricular hypertrophy and fibrosis, diastolic dysfunction and an increased prevalence of arrhythmias [Svilerova et al. 2010 Physiol Res 59: S81-S88).\n(§3) Procedure: male Wistar:WU rats (210-250 g) from Charles River had the left kidney and the renal cortex of the right kidney removed (=SNX) in one session; sham-operated rats served as control group (=SOP). The following groups, each with 12 rats per group, were investigated:\n(§4) Group 2 SNX+placebo (60 g glycerol+100 g water+969 g PEG-400)\n(§5) Group 3 SNX+10 mg/kg body weight/day enalapril (reference therapy, in the drinking water)\n(§6) Group 4 SNX+0.1 mg/kg body weight/day partial A1 agonist EXAMPLE 1, p.o. in placebo\n(§7) Group 5 SNX+1.0 mg/kg body weight/day partial A1 agonist EXAMPLE 1, p.o. in placebo\n(§8) Group 6 SNX+0.3 mg/kg body weight/day partial A1 agonist EXAMPLE 4, p.o. in placebo\n(§9) Group 7 SNX+3.0 mg/kg body weight/day partial A1 agonist EXAMPLE 4, p.o. in placebo\n(§10) Three weeks after 5/6 nephrectomy, the rats developed manifest proteinuria, from this time point the rats were treated for a further four weeks corresponding to the groups stated above. At the end of the protocol, the following samples were obtained/measurements were carried out: eight-hour urine collection with determination of the concentration of hFABP in the urine by ELISA (Rat/Mouse h-FABP ELISA, Hycultbiotech), as marker for end organ damage, invasive measurement of the isoprenaline-induced increase (cumulatively 12.5 ng-250 ng/kg isoprenaline, i.v.) in systolic and diastolic left ventricular function, and TaqMan analyses of renal injury markers in the renal cortex."}, "[2]": {"test_system": "unilaterally nephrectomized SHR", "assay": "Functional and structural renal dysfunction in unilaterally nephrectomized spontaneously hypertensive rats", "assay_type": "in vivo, rat", "conditions": "Group 3: UNX + 10 mg/kg body weight/day in drinking water, 4 weeks", "description": "(§11) B-4. Effects of Partial A1 Agonists on Renal and Cardiac Function in Unilaterally Nephrectomized and Spontaneously Hypertensive Rats (Example 2 for Chronic Kidney Disorders)\n(§12) Unilaterally nephrectomized, spontaneously hypertensive rats (SHR) are an established animal model for investigating the development and progression of hypertensive damage of the glomeruli in the remaining kidney [H. Kinuno et al., “Effects of uninephrectomy on renal structural properties in spontaneously hypertensive rats”, Clin and Exp Pharmacol and Physiol 2005, 32, 173-178]. […] Furthermore, renal excretion of substances usually eliminated in the urine, such as creatinine and urea, is reduced and the electrolyte metabolism is disturbed, the latter being associated with volume retention.\n(§13) Procedure: male SHR rats (180-220 g) from Taconic had the left kidney removed in one session (=UNX). Normotensive Wistar Kyoto rats (WKY) from Taconic served as control. The following groups, each with 12 rats per group, were investigated:\n(§14) Group 2 UNX+placebo (60 g glycerol+100 g water+969 g PEG-400)\n(§15) Group 3 UNX+10 mg/kg body weight/day enalapril (reference therapy, in the drinking water)\n(§16) Group 4 SNX+1.0 mg/kg body weight/day partial A1 EXAMPLE 1, p.o. in placebo\n(§17) Group 5 SNX+3.0 mg/kg body weight/day partial A1 EXAMPLE 4, p.o. in placebo\n(§18) Three weeks after unilateral nephrectomy, the SHRs developed manifest hypertensive damage of the glomeruli in the remaining kidney, from this time point on the rats were treated for a further four weeks corresponding to the groups given above. At the end of the protocol, the following samples were obtained/measurements were carried out: eight-hour urine collection, invasive measurement of systolic and diastolic left ventricular function, and TaqMan analyses of renal injury markers in the renal cortex."}, "[3]": {"test_system": "5/6 nephrectomy rat model", "assay": "Functional and structural renal dysfunction in 5/6 nephrectomized rats", "assay_type": "in vivo", "conditions": "Group 3: SNX + 10 mg/kg body weight/day in drinking water, 4 weeks", "description": "as §1, §2, §3, §4, §5, §6, §7, §8, §9, §10"}, "[4]": {"test_system": "unilaterally nephrectomized SHR", "assay": "Functional and structural myocardial dysfunction in unilaterally nephrectomized spontaneously hypertensive rats", "assay_type": "in vivo, rat", "conditions": "Group 3: UNX + 10 mg/kg body weight/day in drinking water, 4 weeks", "description": "as §11, §12, §13, §14, §15, §16, §17, §18"}}}
{"smiles": "CCOC(=O)[C@H](CCc1ccccc1)N[C@@H](C)C(=O)N1CCC[C@H]1C(=O)O", "note": "[enalapril, reference compound]", "values": [{"measurement": "left-ventricular pressure decrease as a function of time", "setting": "[1]; isoprenaline 0 ng/kg body weight", "result": "6613 ± 226", "unit": "mmHg/s"}, {"measurement": "left-ventricular pressure decrease as a function of time", "setting": "[1]; isoprenaline 12.5 ng/kg body weight", "result": "7972 ± 280", "unit": "mmHg/s"}, {"measurement": "left-ventricular pressure decrease as a function of time", "setting": "[1]; isoprenaline 25 ng/kg body weight", "result": "8297 ± 285", "unit": "mmHg/s"}, {"measurement": "left-ventricular pressure decrease as a function of time", "setting": "[1]; isoprenaline 50 ng/kg body weight", "result": "8705 ± 227", "unit": "mmHg/s"}, {"measurement": "left-ventricular pressure decrease as a function of time", "setting": "[1]; isoprenaline 100 ng/kg body weight", "result": "9267 ± 177", "unit": "mmHg/s"}, {"measurement": "left-ventricular pressure decrease as a function of time", "setting": "[1]; isoprenaline 250 ng/kg body weight", "result": "9359 ± 202", "unit": "mmHg/s"}, {"measurement": "P-creatinine", "setting": "[2]", "result": "62 ± 1.6", "unit": "mmol/L"}, {"measurement": "P-urea", "setting": "[2]", "result": "9.3 ± 0.4", "unit": "mmol/L"}, {"measurement": "U-creatinine", "setting": "[2]", "result": "1.5 ± 0.3", "unit": "μmol/ml urine/kg BW/h"}, {"measurement": "U-protein", "setting": "[2]", "result": "0.43 ± 0.07", "unit": "μmol/ml urine/kg BW/h"}, {"measurement": "U-sodium", "setting": "[2]", "result": "30 ± 5", "unit": "μmol/ml urine/kg BW/h"}, {"measurement": "U-urea", "setting": "[2]", "result": "153 ± 27", "unit": "μmol/ml urine/kg BW/h"}, {"measurement": "Urine volume", "setting": "[2]", "result": "2.4 ± 0.2", "unit": "ml/kg BW/h"}, {"measurement": "CYR61 [gene expression]", "setting": "[2]; renal cortex", "result": "460 ± 55", "unit": "rel. expression"}, {"measurement": "Lipocalin-2 [gene expression]", "setting": "[2]; renal cortex", "result": "140 ± 23", "unit": "rel. expression"}, {"measurement": "P-urea", "setting": "[3]", "result": "15 ± 1", "unit": "mmol/L"}, {"measurement": "U-creatinine", "setting": "[3]", "result": "1.6 ± 0.2", "unit": "μmol/ml urine/kg BW/h"}, {"measurement": "U-protein", "setting": "[3]", "result": "0.25 ± 0.04", "unit": "μmol/ml urine/kg BW/h"}, {"measurement": "U-sodium", "setting": "[3]", "result": "18 ± 3", "unit": "μmol/ml urine/kg BW/h"}, {"measurement": "U-urea", "setting": "[3]", "result": "198 ± 22", "unit": "μmol/ml urine/kg BW/h"}, {"measurement": "Urine volume", "setting": "[3]", "result": "2.8 ± 0.2", "unit": "ml/kg BW/h"}, {"measurement": "End organ injury marker concentration in the urine: hFABP", "setting": "[3]; ELISA", "result": "377 ± 151", "unit": "pg hFABP/ml urine/h"}, {"measurement": "End organ injury marker concentration in the urine: hFABP per creatinine", "setting": "[3]; ELISA", "result": "83 ± 33", "unit": "pg hFABP/μmol creatinine"}, {"measurement": "Kidney injury marker-1 [gene expression]", "setting": "[3]; renal cortex", "result": "27 ± 17", "unit": "rel. expression"}, {"measurement": "Lipocalin-2 [gene expression]", "setting": "[3]; renal cortex", "result": "400 ± 236", "unit": "rel. expression"}, {"measurement": "Osteopontin [gene expression]", "setting": "[3]; renal cortex", "result": "6226 ± 4107", "unit": "rel. expression"}, {"measurement": "Diastolic blood pressure", "setting": "[4]", "result": "91 ± 5", "unit": "mmHg"}, {"measurement": "Heart rate", "setting": "[4]", "result": "353 ± 7", "unit": "beats/min"}, {"measurement": "Left ventricular hypertrophy (LVS/RV ratio, mg/mg)", "setting": "[4]", "result": "3.7 ± 0.2", "unit": "mg/mg"}, {"measurement": "Left-ventricular end-diastolic pressure", "setting": "[4]", "result": "5.4 ± 0.6", "unit": "mmHg"}, {"measurement": "Left-ventricular pressure", "setting": "[4]", "result": "130 ± 5", "unit": "mmHg"}, {"measurement": "Pressure decrease over time", "setting": "[4]", "result": "−10130 ± 239", "unit": "mmHg/s"}, {"measurement": "Pressure increase over time", "setting": "[4]", "result": "8114 ± 304", "unit": "mmHg/s"}, {"measurement": "Systolic blood pressure", "setting": "[4]", "result": "132 ± 4", "unit": "mmHg"}]}
